{"source": "patent US11654110B2", "about": "“Composition and methods for the treatment of peripheral nerve injury” (UNIVERSITY OF ROCHESTER, priority 2013, dated 2023)", "key": {"[1]": {"tested_on": "Schwann cell-DRG neuron co-cultures", "test": "DRG neuron and Schwann cell myelinating co-cultures, MBP+ myelin quantification", "type": "cell-based", "description": "Primary Schwann Cell Culture.\nDorsal Root Ganglia (DRG) Neuron Cell Culture. DRG neurons were isolated from E18 embryos of Sprague-Dawley rats and 5,000 neurons were seeded in laminin/poly-L-lysine coated 48 well plates. Primary DRG neurons were maintained in Neurobasal media supplemented with B27 containing antioxidants, 50 ng/mL NGF, and 1 μM Ara-C. 1 μM Ara-C treatment was performed three times for two days each time following two days of fresh medium without Ara-C to eliminate fibroblasts. After two weeks, DRG neurons with extensive axons were seeded with Schwann cells for myelination tests (Syed et al., The Journal of Neuroscience 30:6122-6131 (2010)).\nDRG Neuron and Schwann Cell Myelinating Co-cultures. Thirty thousand (30,000) Schwann cells were plated onto the DRG neurons per well. Co-cultures were maintained in differentiation media (DMEM/F12 (1:1), 50 ng/mL NGF, 1× N2 supplement) for a week. Co-cultures were then changed to myelinating medium (MEM, 50 ng/mL NGF, 50 μg/mL ascorbic acid, 10% FBS) for two weeks. Medium was changed every two days (Syed et al., The Journal of Neuroscience 30:6122-6131 (2010)). EPO was added three times at day 6 of differentiating stage, day 1, and day 3 of myelinating stage.\nMyelin Quantification. To quantify the extent of myelination in co-cultures, the total number of MBP+ myelin was counted within the whole culture well and normalized by the total cell number (DAPI+).\nTo determine whether EPO enhances Schwann cell-mediated myelination directly we exposed Schwann cell-DRG neuron co-cultures to various concentrations of EPO (1, 10, 100 unit/mL of EPO). In FIG. 15A, every single short thread-like MBP+ staining cells representing a myelin formed by a single myelinating Schwann cell wrapped around the axon."}, "[2]": {"details": "intravenous and oral gelatin-based capsule treatments; cited from earlier work"}, "crushed sciatic nerve [3]": {"tested_on": "crushed sciatic nerve", "test": "Sciatic nerve crush injury, sciatic function index (SFI) by walking track analysis", "type": "in vivo, mice", "description": "There are also possible effects of the 4-AP on nerve injuries suffered more acutely. Acute nerve injury is both common and difficult to treat. One type of acute peripheral nerve injury with a murine model available for study is the sciatic nerve crush injury model in mice and rats. In this model, the nerve is crushed with a variable amount of force which creates a measurable functional deficit in gait. This deficit is measured using a sciatic function index which is an accepted and validated measure of the functional effects of the injury.\n(§1) Mouse Model of Peripheral Nerve Injury. All procedures were approved by the University of Rochester Committee on Animal Resources. Female 10-week-old C57BL6 mice were performed sciatic nerve crush injury on the left hindlimb and the sham-surgery on the other one. All extensive surgery procedures were as described previously (Elfar et al., The Journal of Bone and Joint Surgery, 90: 1644-1653 (2008)). rhEPO was administered immediately at a dose of 5000 U/kg (Juul, Acta Paediatrica 91:36-42 (2002), Bianchi et al., PNAS 101:823-828 (2004), and Elfar et al., The Journal of Bone and Joint Surgery, 90:1644-1653 (2008)).\nSciatic Function Index (SFI) Determined by Walking Track Analysis. The assessment of motor function recovery was performed by calculating the sciatic function index (SFI). Walking track analysis was performed according to a published model that quantifies sciatic nerve function performance (de Medinaceli et al., Exp. Neurol. 77:634-643 (1982)). The operating procedure is extensively described previously (Elfar et al., The Journal of Bone and Joint Surgery, 90:1644-1653 (2008)). In brief, individual mouse footprints were obtained by painting each foot and walked down the 50 cm path in a narrow corridor lined with paper. Gaits were measured from the resulting footprints to get (1) toe spread (TS) (first through fifth toes), (2) print length (PL), and (3) intermediate toe spread (ITS) (second, third, and fourth toes) of both limbs (Gladman et al., The Journal of Neuroscience, 32:563-571 (2012)). All three measurements from the three most clearly inked foot prints per run were taken from the normal (N) and experimental (E) sides, and the SFI were calculated using the following formula: SFI=−38.3((EPL−NPL)/NPL)+109.5((ETS−NTS)/NTS)+13.3((EIT−NIT)/NIT)−8.8 where E is the injured limb and N is the control limb."}, "compressed nerves": {"tested_on": "compressed nerves", "test": "Nerve conduction velocity of chronically compressed nerve (sleeve around the nerve)", "type": "in vivo, mice", "details": "4-AP IP single bolus; 7, 9, 12 weeks of compression", "description": "FIGS. 1A, 1B and 1C show graphs of nerve conduction velocity at 7 weeks (FIG. 1A), 9 weeks (FIG. 1B) and 12 weeks (FIG. 1C) of compression and treatment with high dose 4-AP (HD), low dose of 4-AP (LD), and saline (Sal). 4-AP was administered IP in a single dose as a bolus.\nThe concept that 4-AP may have a role in the treatment of compressed nerves emanates from data showing that the conduction velocity of compressed nerves can respond strongly to pharmacologic treatment with this agent. […] Therefore, 4-AP may be used locally or systemically for the treatment of chronic compression injury."}, "crushed sciatic nerve [4]": {"tested_on": "crushed sciatic nerve", "test": "Immunofluorescent staining of myelinated (P0+) and total (neurofilament+) axons in crushed sciatic nerve", "type": "in vivo, mice", "details": "systemic EPO directly after crush; 7 days post-injury", "excerpt": "FIGS. 14A, 14B, and 14C are images and a graph showing EPO supported preservation of myelin within crushed nerves. FIG. 14A is an image of the immunofluorescent staining of destroyed myelin sheath at the injured site 7 days post-injury. FIG. 14B is an image showing immunofluorescent staining of myelinated axons and total axons in the cross sections of sciatic nerves 7 days post-injury. Representative images of the cross sections of the sciatic nerves (a, d: healthy nerve; b, c, e, f: crushed nerve). FIG. 14C is a graph showing the ratio of the number of myelinated axon to total axons of crushed sciatic nerves with or without EPO administration. (unpaired t-test, n=3, three animals for each set, p<0.01).\nas §1\nTo work towards the underlying action by which EPO works, it was noticed that the speed of recovery in injured mice was too rapid to be attributable to axonal regeneration. 4-aminopyridine (4-AP) is a potassium channel blocker which enables demyelinated axons to conduct impulses, and thus can be used to identify injuries in which whether there exist anatomically intact but demyelinated axons. Mice receiving a sciatic nerve crush injury, performed poorly in SFI tests 3 days after injury. […] The effect of 4-AP raises the possibility that the benefits of EPO may be due to preservation of myelin and/or improvement of remyelination. […] In untreated mice only 25% of axons (neurofilament+) were associated with myelin (P0+) whereas EPO treatment raised this ratio to 60%."}, "[5]": {"tested_on": "glutathione S-transferase and gamma-glutamylcysteine synthetase", "details": "100 U/mL EPO, isolated Schwann cell cultures", "quoted_text": "(unpaired t-test, n=4, p<0.01) FIG. 15D is a gel image of immunoblotting of glutathione S-transferase and gamma-glutamylcysteine synthetase levels in Schwann cells with 100 U/mL EPO treatment."}}, "data": [{"compound": "CC(=O)NC(C(=O)O)C(C)(C)SN=O", "note": "(racemic) [SNAP, S-Nitroso-N-acetyl-DL-penicillamine, reference compound]", "values": [{"measurement": "baseline myelination", "setting": "[1]; 100 μM SNAP", "result": "robust decrease in baseline myelination"}, {"measurement": "cell death", "setting": "[1]; 100 μM SNAP", "result": "significant cell death was not observed"}]}, {"compound": "Nc1ccncc1", "note": "[4-AP, 4-aminopyridine]", "values": [{"measurement": "plasma half-life", "setting": "[2]", "result": "3 to 4", "unit": "h"}, {"measurement": "time to maximum plasma concentration", "setting": "[2]", "result": "about 1 hour"}, {"measurement": "sciatic function index (gait)", "setting": "crushed sciatic nerve [3]; 4-AP administered systemically on day 3 or day 5 after crush injury", "result": "large improvement in the function of the animals gait"}, {"measurement": "SFI", "setting": "crushed sciatic nerve [3]; intraperitoneal 100 μg 4-AP, 3 days after injury", "result": "significant transient improvement in SFI"}, {"measurement": "conduction velocity of compressed nerve (ratio to contralateral uninjured nerve)", "setting": "compressed nerves", "result": "strong effects of 4-AP administration was seen"}]}, {"compound": "EPO: Recombinant human erythropoietin, 30.4-kDa hematopoietic glycoprotein", "values": [{"measurement": "number of axons", "setting": "crushed sciatic nerve [4]", "result": "without significantly altering the number of axons"}, {"measurement": "number of myelinated fibers versus untreated", "setting": "crushed sciatic nerve [4]", "result": "almost tripled"}, {"measurement": "ratio of myelinated (P0+) axons to total axons (neurofilament+)", "setting": "crushed sciatic nerve [4]", "result": 60, "unit": "%"}, {"measurement": "glutathione S-transferase and gamma-glutamylcysteine synthetase levels", "setting": "[5]", "result": "up-regulated"}, {"measurement": "functional improvements in SFI over control groups", "setting": "crushed sciatic nerve [3]; local EPO in fibrin glue vehicle at the site of crush injury, 0.5 U", "result": 15, "unit": "%"}, {"measurement": "SFI function, higher than in untreated animals", "setting": "crushed sciatic nerve [3]; single subcutaneous EPO 5000 U/kg directly after injury, 7 days after injury", "result": 20, "unit": "%"}, {"measurement": "SFI more restored compared to control group", "setting": "crushed sciatic nerve [3]; single subcutaneous EPO 5000 U/kg directly after injury, day 14 after injury", "result": 15, "unit": "%"}, {"measurement": "hind limb / foot appearance", "setting": "crushed sciatic nerve [3]; systemic EPO 5000 U/kg, seven days post-surgery", "result": "close-to-normal appearance"}, {"measurement": "myelin formation under NO stress", "setting": "[1]; 100 μM SNAP with 100 U/mL EPO", "result": "notably recovered myelin formation"}, {"measurement": "total number of MBP+ myelin", "setting": "[1]; 1, 10, 100 unit/mL of EPO", "result": "increased the total number of the MBP+ myelin in co-culture and was found to be dose-dependent"}]}]}
